Assay results reported in patent US12510533B2, “Methods for treating multiple myeloma and the use of companion biomarkers for 4-(4-(4-(((2-(2,6-dioxopiperidin-3-yl)-1-oxoisoindolin-4-yl)oxy)methyl)benzyl)piperazin-1-yl)-3-fluorobenzonitrile” (Celgene Corporation, priority 2018, dated 2025).

What was measured:
[1] = test system: sFLC; test: Phase 1 study, serum free light chain (sFLC); type: in vivo, human; conditions: two subjects; during the first cycle of treatment
Text: This is an open-label, multi-center, international, Phase 1 study to assess the safety, PK/PD and preliminary efficacy of Compound 2 in combination with dexamethasone in subjects with RRMM.
Serum samples were taken before and during Compound 2 treatment at specified time points. Serum free light chain (sFLC) can be used as an efficacy measurement in multiple myeloma. The short half-life of sFLC provides an opportunity to follow the dynamic effect of compound treatment on disease burden. […] The extent of decrease from baseline and duration of the effect may predict response to treatment with Compound 2.

[2] = test system: IL-2; test: IL-2 secretion from anti-CD3 antibody-stimulated healthy donor PBMCs; type: cell-based, human
Protocol: The immunomodulatory activity of Compound 2 on T cell receptor (TCR)-activated healthy PBMCs was assessed.
The effect of Compound 2 in combination with different concentrations of dexamethasone on the ability of PBMCs to produce IL-2 was explored. […]

[3] = test system: H929-1051 and OPM2-P10 cells; test: Apoptosis induction in H929-1051 and OPM2-P10 multiple myeloma cells; type: cell-based, human; conditions: 15 minute or 6 hour transient exposure
Protocol: FIG. 10 illustrates that continuous, but not transient, exposure to Compound 2 induced apoptosis in multiple myeloma cells. Apoptosis induction by Compound 2 treatment in a lenalidomide-resistant MM cell model (H929-1051 [top row] and a pomalidomide-resistant MM cell model OPM2-P10 [bottom row]) is presented.
The effect of Aiolos and Ikaros degradation on induction of apoptosis was also evaluated. The nearly complete and prolonged substrate suppression observed upon continuous exposure of Compound 2 coincided with apoptosis induction in MM cells (FIG. 10). A continuous single exposure to 0.01 and 0.1 μM Compound 2 led to induction of apoptosis in H929-1051 and OPM2-P10 cells (within 50 to 75 hours) (FIG. 10).

[4] = test system: relapsed and refractory multiple myeloma; test: Phase 1 study, response to treatment (IMWG criteria); type: in vivo, human; conditions: subjects with >80% decrease in sBCMA or sFLC
[5] = test system: NCI-H929 cells; test: PBMC-induced MM cell lysis, PBMCs and MM cells both pretreated, versus single MM culture (NCI-H929); type: cell-based, human; conditions: PBMCs and MM cells both preincubated 72 hours
Protocol: Ninety-six-well dishes were pre-coated with anti-CD3 antibody (OKT3, 3 μg/mL) and incubated at 4° C. overnight before the start of the experiment. Frozen PBMC donor cells were thawed at 37° C. for 2 minutes in RPMI medium with 10% FBS and cell counts and viability were measured on the Vi-CELL analyzer. Peripheral blood mononuclear cells were washed and diluted to 1×10^6 cells/mL and dispensed into the compound-treated plates in a total volume of 200 μL. Cells were incubated with Compound 2 for 2 hours before being transferred onto anti-CD3-coated plates and incubated for an additional 72 hours. At the same time, MM cell lines (NCI-H929, H929-1051, OPM2, OPM2-P10) were diluted to a final concentration of 0.1×10^6 cells/mL and labeled with CellTrace CFSE according to manufacturer's instructions. Multiple myeloma cell lines were then dispensed into compound-treated plates at a total volume of 200 μL and incubated for 72 hours. After 72 hours, the PBMCs and MM cells were counted and transferred into a U-bottom 96-well plate at a final T:E ratio of 1:5. After 24 hours coculture, specific target cell lysis by PBMC mediated apoptosis was measured using Annexin V-AF647 and 7-AAD according to manufacturer's instructions and samples were run on the Attune NxT Cytometer. […]

[6] = test system: H929-1051; test: Tumor cell lysis by anti-CD3-activated, compound-treated PBMCs, co-culture with untreated H929-1051; type: cell-based; conditions: Homo sapiens, PBMC; lenalidomide-resistant H929-1051, untreated; 24-hour co-culture
[7] = test system: tumor necrosis factor alpha (TNF-α); test: TNF-α production by TCR-activated healthy PBMCs; type: cell-based, human; conditions: 24 hours
Protocol: FIG. 21A-FIG. 21C illustrate that Compound 2 is a potent inducer of effector cytokines. […] (FIG. 21A) IL-2, (FIG. 21B) IFN-γ, and (FIG. 21C) TNF-α. Data shown are an average from three or four donors and are represented as fold change over DMSO control; error bars represent standard error of the mean (SEM).
The immunomodulatory activity of Compound 2 on T cell receptor (TCR)-activated healthy PBMCs was assessed. […] This increased in cytokine secretion was evident as early as 24 hours after introduction of Compound 2 with the peak of the effector cytokine production induced by Compound 2 being 5.5-fold for IL-2, 4.5-fold for interferon gamma (IFN-γ), and 2-fold for tumor necrosis factor alpha (TNF-α) above the vehicle control (FIG. 21A-FIG. 21C, respectively).

[8] = target: Ikaros (Homo sapiens, UniProt Q13422+Q96SW2); test: Phase 1 study, Ikaros expression by flow cytometry in CD3+ T cells; type: in vivo; design: The effects of Compound 2 on the degradation of Ikaros in CD4+ and CD8+ T cells; endogenous in cells; CD34+ bone marrow cells of healthy donors; CD3+ T cells of multiple myeloma patients; conditions: QD days 1-10, 15-24/28 and BID days 1-3, 15-17/28; recovered during dosing interruptions
Ikaros, sequence (Q13422 whole entry): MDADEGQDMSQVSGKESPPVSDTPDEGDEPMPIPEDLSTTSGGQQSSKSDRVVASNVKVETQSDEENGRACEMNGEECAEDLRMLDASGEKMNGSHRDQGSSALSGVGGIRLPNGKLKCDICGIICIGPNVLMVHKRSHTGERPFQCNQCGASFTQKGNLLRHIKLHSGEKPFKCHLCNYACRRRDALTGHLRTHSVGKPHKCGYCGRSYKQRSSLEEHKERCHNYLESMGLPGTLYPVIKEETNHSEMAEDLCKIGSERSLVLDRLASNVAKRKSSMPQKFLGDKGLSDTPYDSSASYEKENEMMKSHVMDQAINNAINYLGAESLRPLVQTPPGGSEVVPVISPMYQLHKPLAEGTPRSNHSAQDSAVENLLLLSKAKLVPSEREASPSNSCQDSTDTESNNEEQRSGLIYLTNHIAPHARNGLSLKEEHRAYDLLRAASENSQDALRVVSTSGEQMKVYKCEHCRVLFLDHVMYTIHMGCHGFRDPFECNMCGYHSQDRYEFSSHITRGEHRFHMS
Ikaros, sequence (Q16531 2-1140, further chain): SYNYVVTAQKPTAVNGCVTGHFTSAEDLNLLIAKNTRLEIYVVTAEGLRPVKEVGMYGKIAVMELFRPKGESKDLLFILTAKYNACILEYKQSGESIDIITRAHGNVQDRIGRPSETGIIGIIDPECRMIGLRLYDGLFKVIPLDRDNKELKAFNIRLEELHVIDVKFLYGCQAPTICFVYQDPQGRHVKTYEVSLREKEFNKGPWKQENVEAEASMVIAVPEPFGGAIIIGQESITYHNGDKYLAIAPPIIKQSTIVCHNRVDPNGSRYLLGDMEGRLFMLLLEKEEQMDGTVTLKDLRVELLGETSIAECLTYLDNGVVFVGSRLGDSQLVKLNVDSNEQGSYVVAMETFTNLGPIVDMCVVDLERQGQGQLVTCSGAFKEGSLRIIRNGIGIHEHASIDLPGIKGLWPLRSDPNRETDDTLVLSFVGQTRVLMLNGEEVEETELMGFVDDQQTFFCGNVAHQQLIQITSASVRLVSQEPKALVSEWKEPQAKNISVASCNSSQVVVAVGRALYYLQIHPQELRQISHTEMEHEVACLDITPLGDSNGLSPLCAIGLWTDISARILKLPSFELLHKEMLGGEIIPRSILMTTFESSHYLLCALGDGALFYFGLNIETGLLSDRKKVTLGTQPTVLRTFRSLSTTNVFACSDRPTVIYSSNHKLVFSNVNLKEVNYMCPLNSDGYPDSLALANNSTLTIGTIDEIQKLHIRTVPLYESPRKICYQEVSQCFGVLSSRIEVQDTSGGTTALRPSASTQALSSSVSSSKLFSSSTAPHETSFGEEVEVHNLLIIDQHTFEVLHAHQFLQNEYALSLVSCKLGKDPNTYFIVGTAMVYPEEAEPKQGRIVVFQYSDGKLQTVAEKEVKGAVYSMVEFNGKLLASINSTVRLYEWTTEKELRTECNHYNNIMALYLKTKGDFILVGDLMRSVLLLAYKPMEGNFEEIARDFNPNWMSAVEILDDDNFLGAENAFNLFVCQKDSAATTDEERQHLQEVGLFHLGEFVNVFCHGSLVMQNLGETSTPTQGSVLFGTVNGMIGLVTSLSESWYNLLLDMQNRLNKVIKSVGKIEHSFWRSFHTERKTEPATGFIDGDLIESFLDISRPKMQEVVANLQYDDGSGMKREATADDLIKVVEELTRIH
Ikaros, sequence (Q96SW2 whole entry): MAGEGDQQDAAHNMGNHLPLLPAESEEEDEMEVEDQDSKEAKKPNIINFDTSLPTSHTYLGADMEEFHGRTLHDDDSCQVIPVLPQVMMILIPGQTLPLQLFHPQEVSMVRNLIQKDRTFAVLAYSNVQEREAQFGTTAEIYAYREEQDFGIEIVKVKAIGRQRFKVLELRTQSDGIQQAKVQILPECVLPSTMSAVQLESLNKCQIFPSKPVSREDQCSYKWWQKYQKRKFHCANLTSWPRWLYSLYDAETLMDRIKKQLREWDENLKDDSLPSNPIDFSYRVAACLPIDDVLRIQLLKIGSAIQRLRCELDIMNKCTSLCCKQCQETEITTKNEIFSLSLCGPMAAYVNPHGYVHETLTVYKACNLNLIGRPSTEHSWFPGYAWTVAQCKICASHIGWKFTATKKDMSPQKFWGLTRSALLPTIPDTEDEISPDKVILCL
Protocol: FIG. 25A and FIG. 25B illustrate that Compound 2 induced Ikaros degradation in CD3+ T cells from peripheral blood of relapsed/refractory multiple myeloma patients after (FIG. 25A) the once daily (QD) 1-10, 15-24/28 schedule, or (FIG. 25B) the twice daily (BID) 1-3, 15-17/28 schedule.
Ikaros expression was measured by flow cytometry in CD3+ T cells before and during Compound 2 treatment in two different dosing schedules (QD administration on days 1 to 10 and days 15 to 24 of a 28 day cycle, and BID administration on days 1 to 3 and days 15 to 17 of a 28 day cycle).

N#Cc1ccc(N2CCN(Cc3ccc(COc4cccc5c4CN([C@H]4CCC(=O)NC4=O)C5=O)cc3)CC2)c(F)c1 [Compound 2, (S)-4-(4-(4-(((2-(2,6-dioxopiperidin-3-yl)-1-oxoisoindolin-4-yl)oxy)methyl)benzyl)piperazin-1-yl)-3-fluorobenzonitrile]
decrease in sFLC [1]: > 80% | peak IL-2 production above the vehicle control ([2]; 24 hours): 5.5 fold | EC50 ([2]; Homo sapiens, PBMC, 72 h, read-out: IL-2 secretion, mean half-maximal effective concentration (EC50)): 0.014 nM | Compound 2 concentration at peak IL-2 response ([2]; in combination with 10 nM dexamethasone): 10 pM | IL-2 induction above the vehicle control ([2]; in combination with 10 nM dexamethasone, 4 donors, 72 hours): at least 10 fold | IL-2 induction ([2]; in combination with 100 nM dexamethasone): little induction of IL-2 above baseline | effect of transient exposure on apoptosis [3]: precluded the induction of apoptosis | response to treatment [4]: VGPR and PR | enhancement of killing, IC50 of single MM culture versus immune and tumor cell co-culture [5]: ~7000 fold | IC50 [6]: 0.2 nM | peak TNF-α production above the vehicle control [7]: 2 fold | Ikaros degradation in CD3+ T cells [8]: dose dependent
